This is an account of results in patent publication US12344820B2, “Laundry detergent and fabric care compositions with sulfonamides for odor removal from fabrics” (Rem Brands, Inc., priority 2019, dated 2025).

Each structure is given as a SMILES string.

The assay is described as follows: Soaking of sweaty polyester workout shirts in BENZ solution, subjective scent rating by a group of people. Conditions: for Post Dry average scent rating: 30 min soak, after shirt dried; for Post Wet average scent rating: after 30 minutes of soaking; for Pre Soak average scent rating: shirt smelled before soaking (baseline). The text has this: Polyester workout shirts were worn without deodorant during a one-hour workout to induce copious amounts of sweat. The shirts were kept in sealed plastic bags for several days, mimicking normal wash schedule delay. The shirts were then soaked in buckets containing various amounts of N-chloro-4-carboxybenzenesulfonamide (BENZ). The bucket contained either zero (control), 0.02 wt %, 0.04 wt %, or 0.15 wt % of the BENZ (e.g. 0.02 grams BENZ per 100 grams of water, w/w). No agitation, spinning, or moving of any kind occurred during the soaking. After 30 minutes of soaking, the shirts were wrung out and laid to dry.
The shirts were smelled before soaking (Pre Soak), after the 30 minutes of soaking (Post Wet), and after they were dried (Post Dry) by a group of people who subjectively rated the scent of the shirt on a scale of 0 (no smell) to 10 (extremely smelly).

[1] abbreviates: 0.02 wt % BENZ in water, scale 0 to 10.
Where [2] appears, read: 0.04 wt % BENZ in water, scale 0 to 10.
Where [3] appears, read: 0.15 wt % BENZ in water, scale 0 to 10.

Take `O=C(O)c1ccc(S(=O)(=O)NCl)cc1` [BENZ, N-chloro-4-carboxybenzenesulfonamide]: the “Post Dry average scent rating” value came out at 5 under setting [1], 4 under setting [2] and 0 under setting [3]. For the same compound, the “Post Wet average scent rating” value runs as follows: under setting [1], 5; under setting [2], 5; under setting [3], 1. Also, the “Water average scent rating” value by setting is: under setting [1], 7; under setting [2], 5; under setting [3], 2. Also, the “Pre Soak average scent rating” value is on record as 10 (0.02 wt % BENZ in water, scale 0 (no smell) to 10 (extremely smelly)); 10 under setting [2]; 10 under setting [3]. The “effect on malodor” value is recorded as “reduced the intensity of the malodor significantly” (0.02 wt % concentration); “reduced the intensity of the malodor significantly” (0.04 wt % concentration); “eradicated the malodor completely” (0.15 wt % concentration, once the shirt was dry).
